# Data: patent US20060069132A1, “Azolecarboxamide herbicides” (priority 2004, published 2006)
# What was measured:
# [1] = tested on: small flower umbrella sedge; experiment: Test B flooded paddy test; assay type: in vivo, Cyperus difformis; details: 1000 g ai/ha, scale 0 to 100 (0 no effect, 100 complete control)
# How it was run: (§1)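 Plants grow to 1- to 4-leaf stage (2–18 cm) for postemergence spraying, or to 2-leaf stage for the paddy test. Formulated compound is applied. Greenhouse holding lasts 13–15 days. Response is scored visually relative to controls, 0 no effect to 100 complete control; a dash means no result.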
# morningglory = experiment: Test B pre-/postemergence herbicide test; assay type: in vivo, Ipomoea coccinea
# How it was run: (§2)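 Species tested were Echinochloa crus-galli, Ipomoea coccinea, Xanthium strumarium and Oryza sativa, treated both before emergence and at the 1- to 4-leaf stage; rice and barnyardgrass were also tested under flooding at 2 leaves. Greenhouse incubation lasted 13–15 days before visual 0–100 scoring.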
# velvetleaf = experiment: Test B pre-/postemergence herbicide test; assay type: in vivo, Abutilon theophrasti
# How it was run: (§3)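 Herbicidal effect was judged by eye on a 0–100 scale after plants stood 13 to 15 days in the greenhouse following pre- or postemergence treatment with surfactant-containing formulations.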
# rice = experiment: Test B flooded paddy test; assay type: in vivo, Oryza sativa; details: 1000 g ai/ha, scale 0 to 100 (0 no effect, 100 complete control)
# How it was run: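 Treated at 2-leaf (paddy) or 1–4-leaf, 2–18 cm (postemergence); greenhouse 13–15 d; visual score vs control, 0 none to 100 complete control; dash = not tested.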
# barnyardgrass = experiment: Test B flooded paddy test; assay type: in vivo, Echinochloa crus-galli; details: 1000 g ai/ha, scale 0 to 100 (0 no effect, 100 complete control)
# How it was run: as §1
# giant foxtail = experiment: Test B pre-/postemergence herbicide test; assay type: in vivo, Setaria faberi
# How it was run: as §3
# pigweed = experiment: Test B pre-/postemergence herbicide test; assay type: in vivo, Amaranthus retroflexus
# How it was run: as §3
# wheat = experiment: Test B postemergence herbicide test; assay type: in vivo, Triticum aestivum; set-up: key to Wheat plant response rating: 0 = no effect, 100 = complete control
# How it was run: (§4)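 Visual ratings, 0 (no effect) to 100 (complete control), made versus controls after 13–15 d greenhouse. Paddy plants treated at 2-leaf stage; postemergence plants at 1- to 4-leaf stage, 2–18 cm tall.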
# corn = experiment: Test B pre-/postemergence herbicide test; assay type: in vivo, Zea mays
# How it was run: as §3
# large crabgrass = experiment: Test B pre-/postemergence herbicide test; assay type: in vivo, Digitaria sanguinalis
# How it was run: as §3
# blackgrass = experiment: Test B postemergence herbicide test; assay type: in vivo, Alopecurus myosuroides
# How it was run: as §1
# Surinam grass = experiment: Test B pre-/postemergence herbicide test; assay type: in vivo, Urochloa decumbens
# How it was run: as §3
# cocklebur = experiment: Test B pre-/postemergence herbicide test; assay type: in vivo, Xanthium strumarium
# How it was run: as §2
# wild oat = experiment: Test B postemergence herbicide test; assay type: in vivo, Avena fatua
# How it was run: as §4
# lambsquarters = experiment: Test B pre-/postemergence herbicide test; assay type: in vivo, Chenopodium album
# How it was run: as §3
# [2] = 125 g ai/ha, 0 is no effect, 100 is complete control, preemergence
# [3] = Postemergence, 500 g ai/ha, scale 0 (no effect) to 100 (complete control)
# [4] = postemergence, 125 g ai/ha, scale 0 to 100
# [5] = 500 g ai/ha, scale 0 to 100, 0 no effect, 100 complete control, preemergence
# [6] = 125 g ai/ha, visual rating, scale 0 (no effect) to 100 (complete control), postemergence
# [7] = postemergence, 500 g ai/ha, scale 0 to 100, 0 is no effect, 100 is complete control
# [8] = Postemergence, 500 g ai/ha, visual rating after 13 to 15 days, scale 0 (no effect) to 100 (complete control)
# [9] = postemergence, 125 g ai/ha, visual rating, scale 0 (no effect) to 100 (complete control)
# [10] = preemergence, 125 g ai/ha, 0 to 100 scale, 0 is no effect, 100 is complete control
# [11] = Preemergence, 500 g ai/ha, scale 0 to 100
compound,measurement,setting,value
CCc1nn(C(C)(C)C)nc1C(=O)Nc1cccc(C(=O)NC2CC2)c1 [Compound 417],"Sedge, Umbrella plant response rating",[1],70
same,"Plant response rating (0 to 100 scale), Morningglory",morningglory; [2],0
same,Morningglory plant response rating,morningglory; [3],60
same,Morningglory plant response rating,morningglory; [4],50
same,"Plant response rating (0 to 100 scale), Velvetleaf",velvetleaf; [2],50
same,Velvetleaf plant response rating,velvetleaf; [3],40
same,Velvetleaf plant response rating,velvetleaf; [4],20
same,Rice plant response rating,rice,70
same,Barnyardgrass plant response rating,barnyardgrass,70
same,"Plant response rating (0 to 100 scale), Foxtail, Giant",giant foxtail; [2],70
same,"Foxtail, Giant plant response rating",giant foxtail; [3],40
same,"Foxtail, Giant plant response rating",giant foxtail; [4],20
same,"Plant response rating (0 to 100 scale), Pigweed",pigweed; [2],90
same,Pigweed plant response rating,pigweed; [3],80
same,Pigweed plant response rating,pigweed; [4],50
same,Wheat plant response rating,wheat; [5],90
same,Wheat plant response rating,wheat; [3],20
same,Wheat plant response rating,wheat; [4],10
same,"Plant response rating (0 to 100 scale), Corn",corn; [2],40
same,Corn plant response rating,corn; [3],30
same,Corn plant response rating,corn; [4],10
same,"Plant response rating (0 to 100 scale), Crabgrass, Large",large crabgrass; [2],100
same,"Crabgrass, Large plant response rating",large crabgrass; [3],40
same,"Crabgrass, Large plant response rating",large crabgrass; [4],20
same,Blackgrass plant response rating,blackgrass; [3],40
same,Blackgrass plant response rating,blackgrass; [4],10
same,"Plant response rating (0 to 100 scale), Surinam Grass",Surinam grass; [2],80
same,Surinam Grass plant response rating,Surinam grass; [3],30
same,Surinam Grass plant response rating,Surinam grass; [4],10
same,"Plant response rating (0 to 100 scale), Cocklebur",cocklebur; [2],0
same,Cocklebur plant response rating,cocklebur; [3],40
same,Cocklebur plant response rating,cocklebur; [4],20
same,"Oat, Wild plant response rating",wild oat; [3],40
same,"Oat, Wild plant response rating",wild oat; [4],10
same,"Plant response rating (0 to 100 scale), Lambsquarters",lambsquarters; [2],90
same,Lambsquarters plant response rating,lambsquarters; [3],80
same,Lambsquarters plant response rating,lambsquarters; [4],70
C#CCNC(=O)c1cccc(NC(=O)c2nn(C(C)(C)C)nc2CC)c1 [Compound 380],"Sedge, Umbrella plant response rating",[1],70
same,"Plant response rating (0 to 100 scale), Morningglory",morningglory; [2],10
same,Morningglory plant response rating,morningglory; [6],20
same,Morningglory plant response rating,morningglory; [3],60
same,"Plant response rating (0 to 100 scale), Velvetleaf",velvetleaf; [2],10
same,Velvetleaf plant response rating,velvetleaf; [6],10
same,Velvetleaf plant response rating,velvetleaf; [3],30
same,Rice plant response rating,rice,70
same,Barnyardgrass plant response rating,barnyardgrass,70
same,"Plant response rating (0 to 100 scale), Foxtail, Giant",giant foxtail; [2],70
same,"Foxtail, Giant plant response rating",giant foxtail; [6],0
same,"Foxtail, Giant plant response rating",giant foxtail; [7],20
same,"Plant response rating (0 to 100 scale), Pigweed",pigweed; [2],100
same,Pigweed plant response rating,pigweed; [6],50
same,Pigweed plant response rating,pigweed; [3],80
same,Wheat plant response rating,wheat; [6],10
same,Wheat plant response rating,wheat; [5],100
same,Wheat plant response rating,wheat; [3],10
same,"Plant response rating (0 to 100 scale), Corn",corn; [2],0
same,Corn plant response rating,corn; [6],0
same,Corn plant response rating,corn; [7],20
same,"Plant response rating (0 to 100 scale), Crabgrass, Large",large crabgrass; [2],90
same,"Crabgrass, Large plant response rating",large crabgrass; [6],0
same,"Crabgrass, Large plant response rating",large crabgrass; [7],10
same,Blackgrass plant response rating,blackgrass; [6],20
same,Blackgrass plant response rating,blackgrass; [7],40
same,"Plant response rating (0 to 100 scale), Surinam Grass",Surinam grass; [2],40
same,Surinam Grass plant response rating,Surinam grass; [6],10
same,Surinam Grass plant response rating,Surinam grass; [3],30
same,"Plant response rating (0 to 100 scale), Cocklebur",cocklebur; [2],0
same,Cocklebur plant response rating,cocklebur; [6],20
same,Cocklebur plant response rating,cocklebur; [7],30
same,"Oat, Wild plant response rating",wild oat; [6],10
same,"Oat, Wild plant response rating",wild oat; [3],30
same,"Plant response rating (0 to 100 scale), Lambsquarters",lambsquarters; [2],90
same,Lambsquarters plant response rating,lambsquarters; [6],60
same,Lambsquarters plant response rating,lambsquarters; [3],70
CCn1nc(C(C)(C)C)cc1C(=O)Nc1ccc(F)c(C(=O)NCCF)c1 [Compound 60],"Sedge, Umbrella plant response rating","[1]; visual rating, 13 to 15 days",60
same,"Plant response rating, Morningglory",morningglory; [8],20
same,Morningglory plant response rating,morningglory; [9],10
same,"Plant response rating, Morningglory",morningglory; [10],10
same,"Plant response rating, Velvetleaf",velvetleaf; [8],60
same,Velvetleaf plant response rating,velvetleaf; [9],20
same,"Plant response rating, Velvetleaf",velvetleaf; [10],10
same,Rice plant response rating,"rice; visual rating, 13 to 15 days",50
same,Barnyardgrass plant response rating,"barnyardgrass; visual rating, 13 to 15 days",60
same,"Plant response rating, Foxtail, Giant",giant foxtail; [8],20
same,"Foxtail, Giant plant response rating",giant foxtail; [11],100
same,"Foxtail, Giant plant response rating",giant foxtail; [9],10
same,"Plant response rating, Foxtail, Giant",giant foxtail; [10],40
same,"Plant response rating, Pigweed",pigweed; [8],70
same,Pigweed plant response rating,pigweed; [9],70
same,"Plant response rating, Pigweed",pigweed; [10],90
same,"Plant response rating, Wheat",wheat; [8],0
same,Wheat plant response rating,wheat; [9],0
same,"Plant response rating, Corn",corn; [8],20
same,Corn plant response rating,corn; [11],0
same,Corn plant response rating,corn; [9],10
same,"Plant response rating, Corn",corn; [10],0
same,"Plant response rating, Crabgrass, Large",large crabgrass; [8],20
same,"Crabgrass, Large plant response rating",large crabgrass; [11],100
same,"Crabgrass, Large plant response rating",large crabgrass; [9],10
same,"Plant response rating, Crabgrass, Large",large crabgrass; [10],90
same,"Plant response rating, Blackgrass",blackgrass; [8],0
same,Blackgrass plant response rating,blackgrass; [9],0
same,"Plant response rating, Surinam Grass",Surinam grass; [8],20
same,Surinam Grass plant response rating,Surinam grass; [9],10
same,"Plant response rating, Surinam Grass",Surinam grass; [10],10
same,"Plant response rating, Cocklebur",cocklebur; [8],70
same,Cocklebur plant response rating,cocklebur; [11],0
same,Cocklebur plant response rating,cocklebur; [9],40
same,"Plant response rating, Cocklebur",cocklebur; [10],0
same,"Plant response rating, Oat, Wild",wild oat; [8],20
same,"Oat, Wild plant response rating",wild oat; [9],20
same,"Plant response rating, Lambsquarters",lambsquarters; [8],90
same,Lambsquarters plant response rating,lambsquarters; [9],80
same,"Plant response rating, Lambsquarters",lambsquarters; [10],90
